Read-outs that look alike come from different tables or passages of the source.
Assays:
Type in all cases: cell-based, human
Target C = experiment: RT-qPCR splicing assay panel, Target C canonical junction (CJ) mRNA; conditions: Homo sapiens
Protocol: (§1) The expression of a target mRNA was measured by detecting the formation of an exon-exon junction in the canonical transcript (CJ). A compound mediated exon-inclusion event was detected by observing an increase in formation of a new junction with an alternative exon (AJ). Real-time qPCR assays were used to detect these splicing switches and interrogate the potency of various compounds towards different target genes. A high-throughput real time quantitative PCR (RT-qPCR) assay was developed to measure these two isoforms of the mRNA (CJ and AJ) for exemplary genes, such as HTT, SMN2, and MYB, together with a control housekeeping gene, GAPDH or GUSB or PPIA, used for normalization. Briefly, the A673 or K562 cell line was treated with various compounds described herein (e.g., compounds of Formula (I)). After treatment, the levels of the HTT, MYB, or SMN2 mRNA targets were determined from each sample of cell lysate by cDNA synthesis followed by qPCR.
(§2) The A673 cell line was cultured in DMEM with 10% FBS. Cells were diluted with full growth media and plated in a 96-well plate (15,000 cells in 100 ul media per well). The plate was incubated at 37° C. with 5% CO2 for 24 hours to allow cells to adhere. An 11-point 3-fold serial dilution of the compounds was made in DMSO then diluted in media in an intermediate plate. Compounds were transferred from the intermediate plate to the cell plate with the top dose at a final concentration of 10 uM in the well. Final DMSO concentration was kept at or below 0.25%. The cell plate was returned to the incubator at 37° C. with 5% CO2 for an additional 24 hours.
(§3) The K562 cell line was cultured in IMDM with 10% FBS. For K562, cells were diluted with full growth media and plated in either a 96-well plate (50,000 cells in 50 uL media per well) or a 384-well plate (8,000-40,000 cells in 45 uL media per well). An 11-point 3-fold serial dilution of the compounds were made in DMSO then diluted in media in an intermediate plate. Compound was transferred from the intermediate plate to the cell plate with the top dose at a final concentration of 10 uM in the well. Final DMSO concentration was kept at or below 0.25%. Final volume was 100 uL for 96-well plate and 50 uL for 384-well plate. The cell plate was then placed in an incubator at 37° C. with 5% CO2 for 24 hours.
(§4) The cells were then gently washed with 50 uL-100 uL cold PBS before proceeding to addition of lysis buffer. 30 uL-50 uL of room temperature lysis buffer with DNAse I (and optionally RNAsin) was added to each well. Cells were shaken/mixed thoroughly at room temperature for 5-10 minutes for lysis to take place and then 3 uL-5 uL of room temperature stop solution was added and wells were shaken/mixed again. After 2-5 minutes, the cell lysate plate was transferred to ice for RT-qPCR reaction setup. The lysates could also be frozen at −80° C. for later use.
(§5) In some cases, a direct lysis buffer was used. An appropriate volume of 3× lysis buffer (10 mM Tris, 150 mM NaCl, 1.5%-2.5% Igepal and 0.1-1 U/uL RNAsin, pH 7.4) was directly added to either K562 or A673 cells in media and mixed by pipetting 3 times. The plates were then incubated at room temperature with shaking/rocking for 20-50 minutes to allow for lysis to take place. After this time, the cell lysate plate was transferred to ice to set up for the RT-qPCR reactions. The lysates could also be frozen at −80° C. for later use.
(§6) To set up 10 uL RT-qPCR reactions, cell lysates were transferred to 384-well qPCR plates containing the master mix according to the table below. The plates were sealed, gently vortexed, and spun down before the run. The volumes were adjusted accordingly in some instances where the reaction was carried in 20 uL. The table below summarizes the components of the RT-qPCR reactions:
(§7) The RT-qPCR reaction was performed using a QuantStudio (ThermoFisher) under the following fast cycling conditions.

SMN2 mRNA = experiment: RT-qPCR splicing assay, SMN2 canonical junction (CJ) mRNA; conditions: Homo sapiens
Protocol: as §1, §2, §3, §4, §5, §6, §7

HTT mRNA = experiment: RT-qPCR splicing assay, HTT canonical junction (CJ) and alternative junction (AJ) mRNA; conditions: Homo sapiens; for AC50: increase in HTT alternative junction (AJ) mRNA, read-out: HTT AJ AC50
Protocol: as §1
(§8) • Cells-to-CT 1-step kit: ThermoFisher A25602, Cells-to-CT lysis reagent: ThermoFisher 4391851C, TaqMan™ Fast Virus 1-Step Master Mix: ThermoFisher 4444436 • GAPDH: VIC-PL, ThermoFisher 4326317E (Assay: Hs99999905_m1)—used for K562/suspension cell lines • GUSB: VIC-PL, ThermoFisher 4326320E (Assay: Hs99999908_m1)—used for K562/suspension cell lines • PPIA: VIC-PL, ThermoFisher 4326316E (Assay: Hs99999904_m1)—used for A673/adherent cell lines
as §2, §3, §4, §5

MYB mRNA = experiment: RT-qPCR splicing assay, MYB canonical junction (CJ) and alternative junction (AJ) mRNA; conditions: Homo sapiens; for AC50: increase in MYB alternative junction (AJ) mRNA, read-out: MYB AJ AC50
Protocol: as §1, §8, §2, §3, §4, §5

[1] = Table 5 panel, canonical junction qPCR, compound concentration having 50% response in CJ decrease, read-out: Target C IC50 (decrease in CJ mRNA levels)
[2] = Table 5 panel, canonical junction qPCR, compound concentration having 50% response in CJ decrease, read-out: SMN2 IC50 (decrease in CJ mRNA levels)
[3] = decrease in HTT canonical junction (CJ) mRNA, RT-qPCR, read-out: HTT CJ IC50
[4] = Table 5 panel, canonical junction qPCR, compound concentration having 50% response in CJ decrease, read-out: HTT IC50 (decrease in CJ mRNA levels)
[5] = Table 5 panel, canonical junction qPCR, compound concentration having 50% response in CJ decrease, read-out: MYB IC50 (decrease in CJ mRNA levels)
[6] = decrease in MYB canonical junction (CJ) mRNA, RT-qPCR, read-out: MYB CJ IC50

Row | IC50 (Target C; [1]) | IC50 (SMN2 mRNA; [2]) | IC50 (HTT mRNA; [3]) | IC50 (HTT mRNA; [4]) | IC50 (MYB mRNA; [5]) | IC50 (MYB mRNA; [6]) | IC50 (Target C; canonical junction qPCR panel, Table 5, read-out: Target C (decrease in CJ mRNA levels, IC50)) | IC50 (SMN2 mRNA; canonical junction qPCR panel, Table 5, read-out: SMN2 (decrease in CJ mRNA levels, IC50)) | IC50 (HTT mRNA; canonical junction qPCR panel, Table 5, read-out: HTT (decrease in CJ mRNA levels, IC50)) | IC50 (MYB mRNA; canonical junction qPCR panel, Table 5, read-out: MYB (decrease in CJ mRNA levels, IC50)) | SMILES | AC50 (HTT mRNA; RT-qPCR) | AC50 (MYB mRNA; RT-qPCR)
1 | 1 to 10 µM | 0.1 to 1 µM | 1 to 10 µM | 1 to 10 µM | 1 to 10 µM | 1 to 10 µM | – | – | – | – | Cc1cn2cc(-c3nc4ccc(N5CCN(C)CC5)cc4c(=O)[nH]3)cc(F)c2n1 [Compound 111] | 1 to 10 µM | 1 to 10 µM
2 | > 10 µM | > 10 µM | > 10 µM | > 10 µM | > 10 µM | > 10 µM | – | – | – | – | Cc1cc(-c2ccc3nc(NC4CCN(C)CC4)[nH]c(=O)c3c2)cc2cn(C)nc12 [Compound 167] | > 10 µM | > 10 µM
3 | 0.1 to 1 µM | < 0.1 µM | 0.1 to 1 µM | 0.1 to 1 µM | < 0.1 µM | < 0.1 µM | – | – | – | – | Cc1cn2cc(-c3cc(F)c4c(=O)n([C@H]5CC[C@@H](N(C)C)CC5)ccc4c3)cc(F)c2n1 [Compound 656] | 0.1 to 1 µM | < 0.1 µM
4 | 1 to 10 µM | 1 to 10 µM | > 10 µM | > 10 µM | > 10 µM | > 10 µM | – | – | – | – | CN1CCN(c2ccc3nc(-c4ccc5nn(C)cc5c4)[nH]c(=O)c3c2)CC1 [Compound 108] | > 10 µM | > 10 µM
5 | > 10 µM | < 0.1 µM | > 10 µM | > 10 µM | 1 to 10 µM | 0.1 to 1 µM | – | – | – | – | Cc1cn2cc(-c3nc4ccc(N5CCNCC5)cc4c(=O)[nH]3)cc(F)c2n1 [Compound 115] | > 10 µM | 1 to 10 µM
6 | 0.1 to 1 µM | < 0.1 µM | 0.1 to 1 µM | 0.1 to 1 µM | 0.1 to 1 µM | 0.1 to 1 µM | – | – | – | – | CNCCn1ncc2cc(-c3cc(C)c4nc(C)cn4n3)ccc2c1=O [Compound 472] | 0.1 to 1 µM | 0.1 to 1 µM
7 | 1 to 10 µM | < 0.1 µM | 1 to 10 µM | 0.1 to 1 µM | < 0.1 µM | 0.1 to 1 µM | – | – | – | – | Cc1cn2nc(-c3cc(F)c4c(=O)n(C56CCC(N)(CC5)C6)ccc4c3)cc(C)c2n1 [Compound 655] | 0.1 to 1 µM | < 0.1 µM
8 | – | – | < 0.1 µM | – | – | 0.1 to 1 µM | 0.1 to 1 µM | < 0.1 µM | < 0.1 µM | 0.1 to 1 µM | Cc1cn2nc(-c3ccc4c(=O)n([C@@H]5CCNC6(CC6)C5)ncc4n3)cc(C)c2n1 [Compound 1298] | < 0.1 µM | 0.1 to 1 µM

Row | SMILES | IC50 (Target C; [1]) | IC50 (SMN2 mRNA; [2]) | IC50 (HTT mRNA; [3]) | IC50 (HTT mRNA; [4]) | IC50 (MYB mRNA; [5]) | IC50 (MYB mRNA; [6]) | IC50 (Target C; canonical junction qPCR panel, Table 5, read-out: Target C (decrease in CJ mRNA levels, IC50)) | IC50 (SMN2 mRNA; canonical junction qPCR panel, Table 5, read-out: SMN2 (decrease in CJ mRNA levels, IC50)) | IC50 (HTT mRNA; canonical junction qPCR panel, Table 5, read-out: HTT (decrease in CJ mRNA levels, IC50)) | IC50 (MYB mRNA; canonical junction qPCR panel, Table 5, read-out: MYB (decrease in CJ mRNA levels, IC50)) | AC50 (HTT mRNA; RT-qPCR) | AC50 (MYB mRNA; RT-qPCR)
9 | Cc1cc(-c2nc3ccc(N(C)C4CCNCC4)cc3c(=O)[nH]2)cc2cn(C)nc12 [Compound 121, 2-(2,7-dimethyl-2H-indazol-5-yl)-6-(methyl(piperidin-4-yl)amino)quinazolin-4(3H)-one] | > 10 µM | 0.1 to 1 µM | > 10 µM | 1 to 10 µM | > 10 µM | 1 to 10 µM | – | – | – | – | > 10 µM | > 10 µM

From US20250332173A1, “COMPOUNDS AND METHODS FOR MODULATING NUCLEIC ACID SPLICING” (REMIX THERAPEUTICS INC., priority 2021, published 2025)
